Where two headings read alike, the source gives them in different places. Numbered stars: 1 amine (or outer) side, 2 acyl side, 3 side chain; on linkers, the order of the positions; unused ones are H or OH. Bridge positions count the residues as written; N and C are the ends. Square brackets hold non-standard residues; d marks the D form. Peptide text beside a SMILES is read from it. * marks the point of attachment. C20 diacid = O=C(O)CCCCCCCCCCCCCCCCCCC(=O)*; γGlu = O=C(O)[C@H](CCC(=O)[*:2])N[*:1]; NMeI = CC[C@H](C)[C@H](NC)C(=O)O; Sar = CNCC(=O)O
Tests used:
[1] = Solubility assessment (turbidity absorbance at 325 nm); type: physicochemical; conditions: stock 2 mg/ml diluted 1:1, ambient temperature (typically 25°C), n=1; for Solubility, Acetate buffer pH 4: 100 mM acetate buffer pH 4.0; for Solubility, Acetate buffer pH 5: 100 mM acetate buffer pH 5.0; for Solubility, Histidine buffer pH 6: 100 mM histidine buffer pH 6.0; for Solubility, Histidine buffer pH 7: 100 mM histidine buffer pH 7.0; for Solubility, Phosphate buffer pH 6: 100 mM phosphate buffer pH 6.0; for Solubility, Phosphate buffer pH 7: 100 mM phosphate buffer pH 7.0; for Solubility, Phosphate buffer pH 7.5: 100 mM phosphate buffer pH7.5
Outline: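 Stock 2 mg/ml peptide, H2O/HCl pH 2.5; 1:1 into 100 mM buffers: acetate pH 4.0/5.0, His pH 6.0/7.0, phosphate pH 6.0/7.0/7.5. A280 + A325, ~25°C, n=1. Soluble ≥ 1 mg/ml if A325 ≤ 0.02.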

[2] = molecular target: T1, human calcitonin receptor (hCTR2) (Homo sapiens, UniProt P30988); assay: hCTR2 assay: induction of cAMP (AlphaScreen cAMP Assay kit) in COS7 cells expressing hCTR2; type: cell-based
T1 construct: expressed in transfected cells
T1 sequence (P30988 25-474): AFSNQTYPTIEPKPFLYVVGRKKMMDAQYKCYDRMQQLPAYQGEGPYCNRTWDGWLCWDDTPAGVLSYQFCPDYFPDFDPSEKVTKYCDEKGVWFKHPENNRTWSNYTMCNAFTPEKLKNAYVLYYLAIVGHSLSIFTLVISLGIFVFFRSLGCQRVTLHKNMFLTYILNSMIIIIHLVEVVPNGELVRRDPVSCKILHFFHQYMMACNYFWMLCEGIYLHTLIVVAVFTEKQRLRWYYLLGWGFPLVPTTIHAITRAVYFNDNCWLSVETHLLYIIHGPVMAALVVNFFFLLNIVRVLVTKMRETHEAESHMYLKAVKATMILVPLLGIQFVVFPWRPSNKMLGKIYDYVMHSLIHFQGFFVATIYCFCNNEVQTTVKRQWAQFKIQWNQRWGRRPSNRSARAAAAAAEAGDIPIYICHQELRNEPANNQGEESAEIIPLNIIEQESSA
Outline: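 Stable RAMP-naive COS7 clone expressing hCTR2 was stimulated with increasing peptide concentrations in Tyrode buffer (pH 7.4) with 100 µM IBMX and 0.1% casein for 15 min at 37° C. Cells were lysed and cAMP measured by AlphaScreen. EC50 and efficacy relative to pramlintide came from 4PL curve fits.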

[3] = molecular target: T2, human amylin receptor 3 (hAMYR3) consisting of hCTR2 co-expressed with human Receptor Activity Modifying Protein 3 (hRAMP3) (Homo sapiens, UniProt O60896+P30988); assay: hAMYR3 assay: induction of cAMP (AlphaScreen cAMP Assay kit) in COS7 cells expressing hAMYR3; type: cell-based; conditions: cAMP induction in COS7 cells expressing hAMYR3; average of a minimum of 3 determinations; read-out: hAMY R3 EC50
T2 construct: expressed in transfected cells
T2 sequence (P30988 25-474): T1 sequence (P30988 25-474)
T2 sequence (O60896 24-148 partner): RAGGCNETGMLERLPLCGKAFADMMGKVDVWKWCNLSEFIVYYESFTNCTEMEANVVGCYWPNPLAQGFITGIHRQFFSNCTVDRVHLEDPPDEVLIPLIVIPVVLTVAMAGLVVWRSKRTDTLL
Outline: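 Stable COS7 clone co-expressing hCTR2 and hRAMP3, stimulated 15 min at 37° C with increasing peptide in Tyrode buffer pH 7.4 with 100 µM IBMX and 0.1% casein. cAMP measured by AlphaScreen after lysis; EC50 and % efficacy versus pramlintide from 4PL fit.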

[4] = cAMP induction in COS7 cells expressing hCTR2, average of a minimum of 3 determinations, read-out: hCTR2 EC50

Structure (SMILES) | Solubility, Acetate buffer pH 4 [1] | Solubility, Acetate buffer pH 5 [1] | Solubility, Histidine buffer pH 6 [1] | Solubility, Histidine buffer pH 7 [1] | Solubility, Phosphate buffer pH 6 [1] | Solubility, Phosphate buffer pH 7 [1] | Solubility, Phosphate buffer pH 7.5 [1] | EC50 [2, 4] | EC50 [3] | EC50 [2]
CC[C@H](C)[C@@H](C(=O)N[C@@H](CC(C)C)C(=O)N[C@@H](CO)C(=O)N[C@@H](CO)C(=O)N[C@H](C(=O)N[C@@H](CCC(=O)O)C(=O)N[C@H](C(=O)NCC(=O)N[C@@H](CO)C(=O)N[C@@H](CCC(=O)O)C(=O)N[C@H](C(=O)N1CCC[C@H]1C(N)=O)[C@@H](C)O)C(C)C)[C@@H](C)O)N(C)C(=O)[C@H](C)NC(=O)CN(C)C(=O)[C@H](Cc1ccccc1)NC(=O)[C@H](CO)NC(=O)[C@H](CO)NC(=O)[C@H](CO)NC(=O)[C@H](CO)NC(=O)[C@H](CCCNC(=N)N)NC(=O)[C@H](Cc1c[nH]cn1)NC(=O)[C@H](CC(C)C)NC(=O)[C@H](Cc1ccccc1)NC(=O)[C@H](CCC(=O)O)NC(=O)[C@H](C)NC(=O)[C@H](CC(C)C)NC(=O)[C@H](CCCNC(=N)N)NC(=O)[C@H](CC(=O)O)NC(=O)[C@@H](NC(=O)[C@H](C)NC(=O)[C@@H]1CSSC[C@H](NC(=O)[C@H](CCCNC(=N)N)NC(=O)CC[C@H](NC(=O)CCCCCCCCCCCCCCCCCCC(=O)O)C(=O)O)C(=O)N[C@@H](CO)C(=O)N[C@@H]([C@@H](C)O)C(=O)N[C@@H](C)C(=O)N[C@@H]([C@@H](C)O)C(=O)N1)[C@@H](C)O [Compound 148, [19CD]-isoGlu-RC()STATC()ATDRLAEFLHRSSSSF-Gly(Me)-A-Ile(Me)-LSSTEVGSETP-NH2] ({C20 diacid-γGlu}-RCSTATCATDRLAEFLHRSSSSF[Sar]A[NMeI]LSSTEVGSETP-NH2; disulfide 2-7) | SS (SS indicates solubility ≥ 1mg/ml) | SS (SS indicates solubility ≥ 1mg/ml) | SS (SS indicates solubility ≥ 1mg/ml) | SS (SS indicates solubility ≥ 1mg/ml) | SS (SS indicates solubility ≥ 1mg/ml) | SS (SS indicates solubility ≥ 1mg/ml) | SS (SS indicates solubility ≥ 1mg/ml) | 0.14 nM | 0.17 nM | 
CC[C@H](C)[C@@H](C(=O)N[C@@H](CC(C)C)C(=O)N[C@@H](CO)C(=O)N[C@@H](CO)C(=O)N[C@H](C(=O)N[C@@H](CCC(=O)O)C(=O)N[C@H](C(=O)NCC(=O)N[C@@H](CO)C(=O)N[C@@H](CCC(=O)O)C(=O)N[C@H](C(=O)N1CCC[C@H]1C(N)=O)[C@@H](C)O)C(C)C)[C@@H](C)O)N(C)C(=O)[C@H](C)NC(=O)CN(C)C(=O)[C@H](Cc1ccccc1)NC(=O)[C@H](CO)NC(=O)[C@H](CO)NC(=O)[C@H](CO)NC(=O)[C@H](CO)NC(=O)[C@H](CCCNC(=N)N)NC(=O)[C@H](Cc1c[nH]cn1)NC(=O)[C@H](CC(C)C)NC(=O)[C@H](Cc1ccccc1)NC(=O)[C@H](CCC(=O)O)NC(=O)[C@H](C)NC(=O)[C@H](CC(C)C)NC(=O)[C@H](CCCNC(=N)N)NC(=O)[C@H](CCC(N)=O)NC(=O)[C@@H](NC(=O)[C@H](C)NC(=O)[C@@H]1CSSC[C@H](NC(=O)[C@H](CCCNC(=N)N)NC(=O)CC[C@H](NC(=O)CCCCCCCCCCCCCCCCCCC(=O)O)C(=O)O)C(=O)N[C@@H](CO)C(=O)N[C@@H]([C@@H](C)O)C(=O)N[C@@H](C)C(=O)N[C@@H]([C@@H](C)O)C(=O)N1)[C@@H](C)O [Compound 126, [19CD]-isoGlu-RC()STATC()ATQRLAEFLHRSSSSF-Gly(Me)-A-Ile(Me)-LSSTEVGSETP-NH2] ({C20 diacid-γGlu}-RCSTATCATQRLAEFLHRSSSSF[Sar]A[NMeI]LSSTEVGSETP-NH2; disulfide 2-7) | SS (SS indicates solubility ≥ 1mg/ml) | SS (SS indicates solubility ≥ 1mg/ml) | SS (SS indicates solubility ≥ 1mg/ml) | SS (SS indicates solubility ≥ 1mg/ml) | SS (SS indicates solubility ≥ 1mg/ml) | SS (SS indicates solubility ≥ 1mg/ml) | SS (SS indicates solubility ≥ 1mg/ml) |  | 0.28 nM | 0.21 nM
CC[C@H](C)[C@@H](C(=O)N[C@@H](CC(C)C)C(=O)N[C@@H](CO)C(=O)N[C@@H](CO)C(=O)N[C@H](C(=O)N[C@@H](CCC(=O)O)C(=O)N[C@H](C(=O)NCC(=O)N[C@@H](CO)C(=O)N[C@@H](CCC(=O)O)C(=O)N[C@H](C(=O)N1CCC[C@H]1C(N)=O)[C@@H](C)O)C(C)C)[C@@H](C)O)N(C)C(=O)[C@H](C)NC(=O)CN(C)C(=O)[C@H](Cc1ccccc1)NC(=O)[C@H](CO)NC(=O)[C@H](CO)NC(=O)[C@H](CO)NC(=O)[C@H](CO)NC(=O)[C@H](CCCNC(=N)N)NC(=O)[C@H](Cc1c[nH]cn1)NC(=O)[C@H](CC(C)C)NC(=O)[C@H](Cc1ccccc1)NC(=O)[C@H](CCC(=O)O)NC(=O)[C@H](C)NC(=O)[C@H](CC(C)C)NC(=O)[C@H](CCCNC(=N)N)NC(=O)[C@H](CCC(N)=O)NC(=O)[C@@H](NC(=O)[C@H](C)NC(=O)[C@@H]1CSSC[C@H](NC(=O)[C@H](CCCNC(=N)N)NC(=O)CC[C@H](NC(=O)CCCCCCCCCCCCCCCCCCC(=O)O)C(=O)O)C(=O)N[C@@H](CC(=O)O)C(=O)N[C@@H]([C@@H](C)O)C(=O)N[C@@H](C)C(=O)N[C@@H]([C@@H](C)O)C(=O)N1)[C@@H](C)O [Compound 127, [19CD]-isoGlu-RC()DTATC()ATQRLAEFLHRSSSSF-Gly(Me)-A-Ile(Me)-LSSTEVGSETP-NH2] ({C20 diacid-γGlu}-RCDTATCATQRLAEFLHRSSSSF[Sar]A[NMeI]LSSTEVGSETP-NH2; disulfide 2-7) | SS (SS indicates solubility ≥ 1mg/ml) | SS (SS indicates solubility ≥ 1mg/ml) | SS (SS indicates solubility ≥ 1mg/ml) | SS (SS indicates solubility ≥ 1mg/ml) | SS (SS indicates solubility ≥ 1mg/ml) | SS (SS indicates solubility ≥ 1mg/ml) | SS (SS indicates solubility ≥ 1mg/ml) | 0.19 nM | 0.58 nM | 
CC[C@H](C)[C@@H](C(=O)N[C@@H](CC(C)C)C(=O)N[C@@H](CO)C(=O)N[C@@H](CO)C(=O)N[C@H](C(=O)N[C@@H](CC(=O)O)C(=O)N[C@H](C(=O)NCC(=O)N[C@@H](CO)C(=O)N[C@@H](CC(=O)O)C(=O)N[C@H](C(=O)N1CCC[C@H]1C(N)=O)[C@@H](C)O)C(C)C)[C@@H](C)O)N(C)C(=O)[C@H](C)NC(=O)CN(C)C(=O)[C@H](Cc1ccccc1)NC(=O)[C@H](CO)NC(=O)[C@H](CO)NC(=O)[C@H](CO)NC(=O)[C@H](CO)NC(=O)[C@H](CCCNC(=N)N)NC(=O)[C@H](Cc1c[nH]cn1)NC(=O)[C@H](CC(C)C)NC(=O)[C@H](Cc1ccccc1)NC(=O)[C@H](CCC(=O)O)NC(=O)[C@H](C)NC(=O)[C@H](CC(C)C)NC(=O)[C@H](CCCNC(=N)N)NC(=O)[C@H](CCC(=O)O)NC(=O)[C@@H](NC(=O)[C@H](C)NC(=O)[C@@H]1CSSC[C@H](NC(=O)[C@H](CCCNC(=N)N)NC(=O)CC[C@H](NC(=O)CCCCCCCCCCCCCCCCCCC(=O)O)C(=O)O)C(=O)N[C@@H](CC(N)=O)C(=O)N[C@@H]([C@@H](C)O)C(=O)N[C@@H](C)C(=O)N[C@@H]([C@@H](C)O)C(=O)N1)[C@@H](C)O [Compound 160, [19CD]-isoGlu-RC()NTATC()ATERLAEFLHRSSSSF-Gly(Me)-A-Ile(Me)-LSSTDVGSDTP-NH2] ({C20 diacid-γGlu}-RCNTATCATERLAEFLHRSSSSF[Sar]A[NMeI]LSSTDVGSDTP-NH2; disulfide 2-7) | SS (SS indicates solubility ≥ 1mg/ml) | SS (SS indicates solubility ≥ 1mg/ml) | SS (SS indicates solubility ≥ 1mg/ml) | SS (SS indicates solubility ≥ 1mg/ml) | SS (SS indicates solubility ≥ 1mg/ml) | SS (SS indicates solubility ≥ 1mg/ml) | SS (SS indicates solubility ≥ 1mg/ml) | 0.13 nM | 0.14 nM | 
